Here are results for one sequence from patent US9315544B2, “Method of treating eosinophilia by administering an immunomodulating peptide” (National Tsing Hua University, priority 2012, dated 2016).

Series [1] deals with bronchial epithelial cell. As to conditions: cited from earlier work.
The test system of series [2] is human CCL11. The series is described as follows: CCL11 protein release from Beas-2B cells by ELISA. It counts as cell-based. The note with it: Beas-2B cells, 24 h. As for the experimental part: FIG. 2 illustrates CCL11 expression in CMP and ECP co-treated Beas-2B cells. Beas-2B cells were starved with serum free medium for 24 h, followed by stimulation with ECP (column 2). Cells were stimulated with PBS as negative control (column 1) and ECP in the absence of CMP (column 2) or presence of 1 μM (column 3), 2.5 μM (column 4), 5 μM (column 5), 10 μM (column 6) CMP at 37° C. for 24 h. CCL11 protein level was determined by ELISA kit employing CCL11 antibody. The data represented mean±SD (standard deviation) of at least three independent experiments. ***, p<0.001; **, p<0.01
FIG. 3 illustrates CCL11 expression in CMP and IL-4 co-treated Beas-2B cells. Beas-2B cells were starved with serum free medium for 24 h, followed by stimulation with PBS (column 1) or 10 ng/mL IL-4 (column 2-7). Cells were stimulated with 10 ng/mL IL-4 in the absence […] or presence of 1 μM (column 3), 2.5 μM (column 4), 5 μM (column 5) and 10 μM (column 6) CMP at 37° C. for 24 h. CCL11 protein level was determined by ELISA kit employing CCL11 antibody. The data represented mean±SD (standard deviation) of at least three independent experiments. ***, p<0.001 (Stimulation with IL-4 compared with PBS treated Beas-2B cells). *, p<0.05 (Stimulation with indicated concentrations of CMP compared with IL-4 treated Beas-2B cells).
CCL11 ELISA kit (R&D) is an in vitro enzyme-linked immunosorbent assay for quantitative determination of human CCL11 concentration in cell culture supernatants. This assay employed an antibody specific for human CCL11 coated on a 96-well plate. The wells were incubated with 50 μL standard or sample for 2.5 hours at room temperature. After washing with 1× wash solution five times, 200 μL of CCL11 conjugate were added into each wells for 1 h. After washing, 100 μL TMB One-Step Substrate Reagent were added into each wells at room temperature for 30 minutes. 50 μL of Stop Solution were added into each wells and read at 450 nm by spectrophotometer immediately. Limit of detection in the assay was 5 pg/mL.
To investigate whether CMP influenced ECP-mediated CCL11 expression, Beas-2B cells were separately stimulated with 5 μM ECP in the absence of CMP and in the presence of 1 μM, 2.5 μM, 5 μM and 10 μM CMP at 37° C. for 24 h.
To further investigate whether CMP influenced CCL11 production from other stimulation in Beas-2B cells, serum-deprived Beas-2B cells were stimulated with 10 ng/mL IL-4, a dominant cytokine regulating CCL11, alone or in the presence of CMP at concentrations 1, 2.5, 5 and 10 μM at 37° C. for 24 h.
A general note: In an ELISA, binding on a coated surface is turned into a signal by an enzyme label.

Series [3] concerns mite-specific IgE. The experiment in a line: Serum mite-specific IgE by ELISA. Type of series: in vivo, BALB/c mouse. The source says:
FIG. 4 illustrates experimental design. All groups except control group were immunized with mite crude extract allergen on days 1 and 8, then mite crude extract allergen intratracheally on day 15 in all mite treated group, BALB/c mouse were divided into six groups (1) control group (PBS), (2) mites delivered intratracheally (mIT, mite on day 15) alone, (3) CMP intranasal (eIN, CMP on days 1 to 22) alone, (4) preventive-treatment group (eIN+mIT, CMP on days 1 to 14, mite on day 15) (5) therapy-treatment group (mIT+eIN, mite on day 15, CMP on days 15 to 22), and (6) preventive- and therapeutic-treatment group (eIN+mIT+eIN, CMP on days 1 to 22, mite on day 15).
FIG. 8 illustrates inhibitory effect of CMP on serum IgE level. […] Levels of serum Derp-specific IgE were measured by enzyme-linked immunosorbent assay (ELISA). Each result was expressed as the mean±S.D., n=4. *, P<0.05, **, P<0.01. […]
Mite protein (5 μg) was coated on the plated at 4° C. overnight. […] The levels of serum mite-specific IgE were measured by enzyme-linked immunosorbent assay (ELISA).
To further analyze therapeutic effect of CMP on mite sensitization, serum mite-specific IgE levels in mice were measured from all six treatment groups. […]

Turning to NYRWRCKNQN (CMP), the “cytotoxic effect on bronchial epithelial cell” value in series [1] was “no cytotoxic effect”. For the same sequence, the “release of CCL11 induced by IL-4, reduced to” value in series [2] (10 ng/mL IL-4 with 5 μM CMP) amounted to 48.1 pg/mL; in series [2] (10 ng/mL IL-4 with 10 μM CMP), 30.2 pg/mL. Also, the “CCL11 production induced by IL-4” value in series [2] (10 ng/mL IL-4 with 1 or 2.5 μM CMP) is “did not reduce”. Further, the “CCL11 induced by ECP, reduced to” value in series [2] (5 μM ECP and 5 μM CMP) is reported as 7.55 pg/mL; in series [2] (5 μM ECP and 10 μM CMP), 8.94 pg/mL. Besides, the “ECP-mediated CCL11 production” value in series [2] (5 μM ECP and 1 or 2.5 μM CMP) was “did not reduce”. The “serum mite-specific IgE level compared with mIT group” value in series [3] (eIN+mIT+eIN group, day 23) is reported as “much lower”. Further, the “serum mite-specific IgE reading of mIT group compared with CMP groups” value in series [3] (mIT vs eIN+mIT, mIT+eIN and eIN+mIT+eIN groups, day 18) is listed as “higher”.
